Experimental data as given in patent publication US8653298B2, “Biphenyl acetate, preparation and uses thereof” (Shijiazhuang Yiling Pharmaceutical Co., Ltd., priority 2006, dated 2014).
“Also recorded” adds a separate entry of the source. Counter-ions that a name gives are not always drawn.

Key:
[1] = system: NIH mice; assay: test of stomach channel, oral administration; conditions: 212 mg/kg oral, fasted 24 hours, stomach dissected after 48 hours
Description: NIH mice are divided into two groups randomly. […] Dissect stomach after 48 hours. Use 10% methylene oxide. Cut the stomach along the curve of stomach, and calculate the percentage of an ulcer canker.

[2] = solubility testing; type: physicochemical; conditions: for Conclusion (solubility): 25±2° C.
Description: According to Chinese medicine book in 2005 edition, the preparation of biphenyl acetic ammonia butantriol salt is made by different solvent. […] At first, mill the biphenyl acetic ammonia butantriol salt into flour and weight it, and add solvent into the biphenyl acetic ammonia butantriol salt. Second, at 25±2° C., wave the mixer solution every 5 minutes for 30 seconds, and inspect the dissolve situation. Repeat three times and the result is illustrated in Table 1.

[3] = system: female Kunming mouse; assay: analgesia, mice heating plate method; type: in vivo; conditions: for pain record on hot plate (55±0.5° C.): 240 mg/kg
Description: Pick the female Kunming mouse, each having the weight between 20 to 22 grams. At first, test their sensitive towards pain. Put the mouse on the hot plate with the temperature of 55±0.5° C., and calculate how much pain does the mouse has by determining how many times they lick their back leg. Eliminate the mice seem to like to jump and the mice has no respond for 30 seconds. Pick a total of 60 mice having sensitive to pain and divide them into 5 groups randomly. […] The dosage of biphenyl acetic ammonia butantriol salt is divided into low, medium, and high dosage, correspondingly to 4, 12, 36 mg/kg, and normal dosage ⅓, 1, 3 respectively. And there is a positive contrast group. […] On the other hand, the saline is injected into the vein in the contrast group. Use epilation to remove the hair of the back leg of the mouse. Record the painful of every mouse before giving drug, and record the painful after giving drug 1 hour. After the mouse licks its foot, remove the hot plate immediately. Do the same record again at the second and third hour after giving drug. Do the t inspect, and judge its effects on easing pain.

[4] = system: 2% red blood cell's suspending liquid; assay: hemolytic testing outside the body (visual); type: cell-based, rabbit; conditions: low concentration 0.63 mg/ml
Description: Take 0.5 ml the biphenyl acetic ammonia butantriol salt solution and dilute it with 0.9 % NaCl solution (0.9 g/100 ml) to 6.25 ml.
Take 2 ml the biphenyl acetic ammonia butantriol salt solution and dilute it with 0.9 % NACL (0.9 g/100 ml) solution to 6.0 ml.
Take few milliliters of rabbit blood into a triangular flask and shake it for 10 minutes. Remove the fiber egg white, and get non-fiber blood. Separate the blood solution into few centrifuge tubes. Add ten times of 0.9% NaCl solution, well mixing, and centrifuge (1500 turns/minutes, 15 minutes) to remove the supernatant. Use 0.9% NaCl solution to wash the precipitation red blood two or three times until the supernatant is not red anymore. Use the red blood to mix the 0.9% NaCl solution to make 2% suspending liquid for test use.
Take the same size of opening of 7 clean test tubes and number them. Add the 0.9% NaCl solution, the injection water, medicine, and the 2% suspending liquid followed by Table 9. After well mixing, put them in the temperature chamber at 37° C. Inspect them every 15 minutes. After 1 hour, inspect them every one hour for 3 hours.
If testing solution presents clearly red, no cellular residual under the tube, and few cellular residual, it can determines that haemolysis happens. If red cells all sink, and supernatant fluid presents no color, it can present that haemolysis doesn't happen. […]

[5] = in vivo; conditions: both, NIH, mouse, in vivo
Source text: (§1) A total amount of 40 NIH mice, 19-21 gram, (half of the mice are male and half of the mice are female), it is divided into two groups: medicine group and the contrast group. […] The contrast is given by the […] liquid. Investigation and record the poison effect on the mice and the amount of mice death.

[6] = system: NIH mice; assay: in vivo
Source text: as §1

[7] = stable test of the injection (influence, acceleration, long term); type: physicochemical
Source text: The purpose is to investigate the regular change of this product which has the influence of temperature, humidity, and light intensity, and offer producing, packaging, and transporting condition for this medicine. At the same time, the effective date is established by passing this testing. According to the Chinese pharmacopia appendix XI X C, second edition, 2005(the rule of medicine stability testing direction) and “The important stability item-list of bulk drug and pharmaceutical preparation” which is in “The researching directive rule of chemical medicine and therapeutic biological products” determines the important item-list, which includes gender character, PH value, relative materials, asepsis, thermal source, assay, and so on. The testing result is below: […] In other words, the quality of the product is very stable. […] In other words, the quality of the product is very stable. […] In other words, the quality of the product is very stable.

[8] = system: NIH mice; assay: twist reaction caused by glacial acetic acid; conditions: 3-48 mg/kg
Description: After testing, the 110 NIH mice are divided into eleven groups randomly, which means each group has 10 mice, and each of the mice has a weight between 15 and 17 grams. The numbers and dosage of the biphenyl acetic ammonia butantriol slat are 1, 2, 3, 4, 5 and 3, 6, 12, 24, 48 mg/kg respectively. The numbers and dosage of flurbiprofen axetil are 1, 2, 3, 4, 5, and 3, 6, 12, 24, 48 respectively also. The medicine and weight ratio is 0.1 ml medicine/10 g weight. Meanwhile, we give the same quantity of saline solution to the contrast group. After 30 minutes, the mixture solution is injected into the vein according to its weight ratio 0.1 ml liquid/10 gram weight for HAc painful.

[9] = system: Kunming mouse; assay: swelling of the mouse ear caused by dimethyl benzene; conditions: 3-48 mg/kg
Source text: Total numbers of 110 Kunming mice are used, male, 15-17 g, medical inspection for 3 days.
After testing, the mice are divided into eleven groups randomly and each group contains 10 mice. The numbers and dosage of the biphenyl acetic ammonia butantriol slat are 1, 2, 3, 4, 5 and 3, 6, 12, 24, 48, respectively. The numbers and dosage of flurbiprofen axetil are 1, 2, 3, 4, 5, and 3, 6, 12, 24, 48 respectively. Use the dimethybenzene to make the mouse ear swelling, and use the mouse left ear as the contrast group. After 30 minutes, the mixing liquid is injected into the vein according to its weight ratio 0.1 ml liquid/10 gram weight. Use a punch, having the diameter of 8 mm, to punch the same hole in two different ears. Weight it by very high quality scale. Finally, the swelling ratio is: the weight of right ear plus the weight of left ear.

[10] = solvent Acetone, 8.9 g in 150 ml
[11] = solvent Acetonitrile, 9.1 g in 150 ml
[12] = solvent Alcohol, 14.3 g in 10 ml
[13] = solvent Formamide, 0.2137 g in 6 ml
[14] = solvent Methanol, 0.1135 g in 3 ml
[15] = both, NIH, mouse, in vivo, 14 days

CC(=O)O.c1ccc(-c2ccccc2)cc1 [Biphenyl acetate]
Number of ulcer animals/Sum of total animals [1]: 13/15

O=C(O)Cc1ccc(-c2ccccc2)cc1 [biphenyl acetic ammonia butantriol salt]
The dissolving condition [2, 10]: Completely
Conclusion (solubility) [2, 10]: Undissolvable
The dissolving condition [2, 11]: Completely
Conclusion (solubility) [2, 11]: Undissolvable
The dissolving condition [2, 12]: Completely
Conclusion (solubility) [2, 12]: just a few dissolve; also recorded: Slightly
The dissolving condition [2, 13]: Completely
Conclusion (solubility) [2, 13]: Dissolved
The dissolving condition [2, 14]: Completely
Conclusion (solubility) [2, 14]: Dissolved
The dissolving condition ([2]; solvent Water, 14.1 g in 10 ml): Completely
Conclusion (solubility) ([2]; solvent Water, 14.1 g in 10 ml): just a few dissolve; also recorded: Slightly
time which mouse is standing on the hot plate compared to the contrast group ([3]; first, second and third hour after giving drugs): significantly extends
blood absorbing reaction within 3 hours [4]: no blood absorbing reaction
LD50 at 14 days ([5]; LD50): > 940 mg/kg
LD50 at 14 days ([5]; LD50 of the salt stated as biphenyl phenylacetic acid): 589 mg/kg
mouse death ([6]; 940 mg/kg total for one day, 14 days after injection): no mouse went death
maximum enduring quantity [6, 15]: over 940 mg/kg
tolerance value [6, 15]: 940 mg/kg
poison effect on the mice after injection ([6]; mouse, in vivo): barely to move
long term test: change of the product ([7]; 25° C., relative humidity 25%, 3 months): no significantly change
acceleration test: change of the product ([7]; 40±2° C., relative humidity 75±5%, 3 months): no significantly change
influence test: change of the product ([7]; 60° C., relative humidity 92.5±5%, light intensity 4500±500 lx, 10 days): no significantly change
effect towards the mouse twisted caused by glacial acetic acid compared with flurbiprofen axetil injection [8]: no significantly difference
effect towards the swelling ear caused by dimethybenzene compared with flurbiprofen axetil [9]: no significantly difference

CC(=O)Oc1ccccc1C(=O)O [Lysine Acetyl-salicylate]
pain record on hot plate (55±0.5° C.) ([3]; 1 hour): 31.08 ± 4.26
pain record on hot plate (55±0.5° C.) ([3]; 2 hours): 30.35 ± 3.29
pain record on hot plate (55±0.5° C.) ([3]; 3 hours): 28.16 ± 2.97
